The target of test [1] is T1, human LPA1 receptor (Homo sapiens, UniProt Q92633).
T1 construct: purchased ChanTest A324; host or cells: RH 7777 cells (recombinant expression; membrane fraction)
Kind of test: Binding test of GTPγS to LPA1 receptor. The format is biochemical. To be noted: membrane fraction of RH 7777 cells expressed with human LPA1 receptor; LPA 100 nM; read-out: IC50: concentration of the test compound which inhibits the binding of LPA1 receptor and [35S]GTPγS by 50%. The protocol: Binding test of GTPγS to LPA1 receptor
5 μg of the membrane fraction of RH 7777 cells expressed with human LPA1 receptor (A324, ChanTest) was suspended in a reaction buffer (20 mM HEPES, 100 mM NaCl, 10 mM MgCl2, 10 μM GDP, 5 μg saponin, 0.2% BSA, 0.1 nM [^35S]GTPγS (NEG030X, Perkin Elmer), pH 7.4), and the test compound dissolved in DMSO in various concentrations was added. After preincubation at 30° C. for 15 minutes, LPA (L7260, Sigma, the final concentration of 100 nM) was added, and the suspension was incubated at 30° C. for 30 minutes. The membrane fraction was collected onto a glass fiber filter (GF/B, Whatman) by using a cell harvester (M30, Brandel), and washed with a 10 mM phosphate buffer (pH 7.4). The radioactivity of the membrane fraction was measured using a liquid scintillation analyzer (2900TR, Packard) and the concentration of the test compound which inhibits the binding of LPA1 receptor and [^35S]GTPγS by 50%, (1050) was determined by non-linear regression analysis using EXSAS (version 7.6.0, Arm Systex).
(In general: GTPγS resists hydrolysis and so accumulates on activated G proteins.)

The test system of test [2] is A2058 human melanoma cells. Description: Cell migration test (LPA-induced, Chemo-Tx). It is filed as cell-based. To be noted: LPA 100 nM, 3 hours, read-out: IC50: concentration of the test compound which inhibits the cell migration activity of LPA by 50%. The protocol:
The cell migration test was carried out using Chemo-Tx (registered trademark) (116-8, Neuro Probe). A2058 human melanoma cells (obtained from European Collection of Cell Culture) were cultured in a serum-free EMEM medium for 24 hours, and then re-suspended in a 0.1% BSA-containing DMEM medium to obtain a cell suspension. The test compound dissolved in DMSO in various concentration was each added to the cell suspension, and the suspension was cultured at 37° C. for 15 minutes (the final DMSO concentration of 0.5%). LPA dissolved in a 0.1% BSA-containing DMEM medium (the final concentration of 100 nM) was added to Chemo-Tx 96 well plate, and a Chemo-Tx filter which had been coated with 0.001% Fibronectin on the both surfaces was put on the plate. The suspension of cultured cells (25,000 cells) was added onto the upper surface of the filter and further cultured at 37° C. for 3 hours, and the cells on the upper surface of the filter were removed. After the filter was removed and dried, the cells which had migrated to the lower surface of the filter were stained using Diff-Quik stain (16920, Sysmex). The absorbance of the filter (570 nm) was measured and the concentration of the test compound which inhibits the cell migration activity of LPA by 50%, (1050) was determined by non-linear regression analysis using EXSAS (version 7.6.0, Arm Systex).

Test [3] deals with LPA-induced histamine release. Kind of test: LPA-induced histamine release test in mouse. The format is in vivo. To be noted: male CD1 mice; oral dose of 10 mg/kg; LPA 300 μg/mouse via tail vein 4 hours after administration; blood 2 minutes after LPA; read-out: efficacy rate (rate of individuals which showed the inhibition rate of 80% or more of plasma histamine). On the procedure:
LPA-Induced Histamine Release Test in Mouse
LPA-induced histamine release test in mouse was carried out according to a method by Swaney et al. (The Journal of Pharmacology and Experimental Therapeutics, 336 (2011), pages 693-700). The test compound was suspended in 0.5% methylcellulose solution (133-14255, Wako), and orally administered to male CD1 mice (body weight: 30 to 40 g, supplied by Charles River Laboratories Japan) at a dose of 10 mL/kg. 4 hours after administration, LPA (857130P, Avanti) dissolved in a 0.1% BSA-containing PBS was administered via the tail vein (300 μg/mouse). Immediately, the mouse was anesthetized with isoflurane, and blood was collected via a vein 2 minutes after the administration of LPA. The blood was put into a test tube containing EDTA, and centrifuged at 4° C., 2,000×g, for 10 minutes to obtain the plasma.
The histamine concentration in the plasma was measured by EIA kit (62HTMPEB, Cisbio Bioassays).

T1 sequence (Q92633 whole entry): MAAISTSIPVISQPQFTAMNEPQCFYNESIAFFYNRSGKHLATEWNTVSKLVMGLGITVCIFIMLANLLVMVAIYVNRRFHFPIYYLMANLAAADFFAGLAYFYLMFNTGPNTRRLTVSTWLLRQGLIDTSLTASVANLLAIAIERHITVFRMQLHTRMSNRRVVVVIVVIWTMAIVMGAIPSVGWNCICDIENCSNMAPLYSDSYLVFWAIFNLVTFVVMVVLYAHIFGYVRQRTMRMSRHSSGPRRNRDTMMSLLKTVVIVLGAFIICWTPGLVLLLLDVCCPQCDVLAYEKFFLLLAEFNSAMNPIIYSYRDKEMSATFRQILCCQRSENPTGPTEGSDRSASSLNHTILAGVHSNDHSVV

On to `CC(OC(=O)Nc1cc(Br)sc1-c1ccc(-c2ccc(C3(C(=O)O)CC3)cc2)cc1)c1ccccc1Cl` (racemic) [I-11, (RS)-1-{4′-[5-Bromo-3-({[1-(2-chlorophenyl)ethoxy]carbonyl}amino)thiophen-2-yl]-[1,1′-biphenyl]-4-yl}cyclopropanecarboxylic acid], for which the IC50 in test [1] is ≤ 200 nM.
As to `CC(OC(=O)Nc1cc(Cl)sc1-c1ccc(-c2ccc(C3(C(=O)O)CC3)cc2)cc1)c1ccccc1Cl` (racemic) [I-51, (RS)-1-{4′-[5-Chloro-3-({[1-(2-chlorophenyl)ethoxy]carbonyl}amino)thiophen-2-yl]-[1,1′-biphenyl]-4-yl}cyclopropanecarboxylic acid], the IC50 in test [1] and in test [2] was ≤ 200 nM throughout.
On to `C[C@@H](OC(=O)Nc1cc(Cl)sc1-c1ccc(-c2ccc(C3(C(=O)O)CC3)cc2)cc1)c1ccccc1` [I-24, (R)-1-[4′-(5-Chloro-3-{[(1-phenylethoxy)carbonyl]amino}thiophen-2-yl)-[1,1′-biphenyl]-4-yl]cyclopropanecarboxylic acid], for which the IC50 in test [1] and in test [2] was ≤ 200 nM in each case. In test [3], the responders at 10 mg/kg is ≥ 50%.
As for `C[C@@H](OC(=O)Nc1cc(Cl)sc1-c1ccc(-c2ccc(C3(C(=O)O)CC3)cc2)cc1)c1ccccc1F` [I-28, (R)-1-{4′-[5-Chloro-3-({[1-(2-fluorophenyl)ethoxy]carbonyl}amino)thiophen-2-yl]-[1,1′-biphenyl]-4-yl}cyclopropanecarboxylic acid], the IC50 in test [1] and in test [2] was ≤ 200 nM each time. For the same compound, the responders at 10 mg/kg in test [3] is ≥ 50%.
Turning to `C[C@@H](OC(=O)Nc1cc(Cl)sc1-c1ccc(-c2ccc(C3(C(=O)O)CC3)cc2)cc1)c1cccc(F)c1` [I-38, (R)-1-{4′-[5-Chloro-3-({[1-(3-fluorophenyl)ethoxy]carbonyl}amino)thiophen-2-yl]-[1,1′-biphenyl]-4-yl}cyclopropanecarboxylic acid], the IC50 in test [1] and in test [2] was ≤ 200 nM in each case. The responders at 10 mg/kg in test [3] is ≥ 50%.
Take `C[C@@H](OC(=O)Nc1cc(Cl)sc1-c1ccc(-c2ccc(C3(C(=O)O)CC3)cc2)cc1)c1ccc(F)cc1` [I-42, (R)-1-{4′-[5-Chloro-3-({[1-(4-fluorophenyl)ethoxy]carbonyl}amino)thiophen-2-yl]-[1,1′-biphenyl]-4-yl}cyclopropanecarboxylic acid]: the IC50 in test [1] and in test [2] was ≤ 200 nM throughout. In test [3], the responders at 10 mg/kg was ≥ 50%.
Take `C[C@@H](OC(=O)Nc1cc(Cl)sc1-c1ccc(-c2ccc(C3(C(=O)O)CC3)cc2)cc1)c1ccc(F)cc1Cl` [I-76, (R)-1-{4′-[5-Chloro-3-({[1-(2-chloro-4-fluorophenyl)ethoxy]carbonyl}amino)thiophen-2-yl]-[1,1′-biphenyl]-4-yl}cyclopropanecarboxylic acid]: the IC50 in test [1] and in test [2] was ≤ 200 nM throughout.
Regarding `C[C@@H](OC(=O)Nc1cc(F)sc1-c1ccc(-c2ccc(C3(C(=O)O)CC3)cc2)cc1)c1ccc(F)cc1F` [I-140, (R)-1-{4′-[3-({[1-(2,4-Difluorophenyl)ethoxy]carbonyl}amino)-5-fluorothiophen-2-yl]-[1,1′-biphenyl]-4-yl}cyclopropanecarboxylic acid], the IC50 in test [1] and in test [2] was ≤ 200 nM throughout.
As for `COc1cc(-c2sc(F)cc2NC(=O)O[C@H](C)c2cccc(F)c2)ccc1-c1ccc(C2(C(=O)O)CC2)cc1` [I-428, (R)-1-{4′-[5-Fluoro-3-({[1-(3-fluorophenyl)ethoxy]carbonyl}amino)thiophen-2-yl]-2′-methoxy-[1,1′-biphenyl]-4-yl}cyclopropanecarboxylic acid], the IC50 in test [2] was ≤ 200 nM. For the same compound, the responders at 10 mg/kg in test [3] was ≥ 50%.
Consider `COc1cc(-c2sc(F)cc2NC(=O)O[C@H](C)c2ccc(F)cc2)ccc1-c1ccc(C2(C(=O)O)CC2)cc1` [I-432, (R)-1-{4′-[5-Fluoro-3-({[1-(4-fluorophenyl)ethoxy]carbonyl}amino)thiophen-2-yl]-2′-methoxy-[1,1′-biphenyl]-4-yl}cyclopropanecarboxylic acid], for which the IC50 in test [2] was ≤ 200 nM. For the same compound, the responders at 10 mg/kg in test [3] was ≥ 50%.
As to `COc1cc(-c2sc(F)cc2NC(=O)O[C@H](C)c2ccccc2Cl)ccc1-c1ccc(C2(C(=O)O)CC2)cc1` [I-442, (R)-1-{4′-[3-({[1-(2-Chlorophenyl)ethoxy]carbonyl}amino)-5-fluorothiophen-2-yl]-2′-methoxy-[1,1′-biphenyl]-4-yl}cyclopropanecarboxylic acid], the IC50 in test [2] is ≤ 200 nM. Moreover, the responders at 10 mg/kg in test [3] is ≥ 50%.
Consider `COc1cc(-c2sc(F)cc2NC(=O)O[C@H](C)c2ccccc2C)ccc1-c1ccc(C2(C(=O)O)CC2)cc1` [I-450, (R)-1-{4′-[5-Fluoro-3-({[1-(o-tolyl)ethoxy]carbonyl}amino)thiophen-2-yl]-2′-methoxy-[1,1′-biphenyl]-4-yl}cyclopropanecarboxylic acid], for which the IC50 in test [2] was ≤ 200 nM. For the same compound, the responders at 10 mg/kg in test [3] is ≥ 50%.
Taken in the same sequence, the figures for `COc1cc(-c2sc(F)cc2NC(=O)O[C@H](C)c2cc(F)ccc2F)ccc1-c1ccc(C2(C(=O)O)CC2)cc1` [I-458, (R)-1-{4′-[3-({[1-(2,5-Difluorophenyl)ethoxy]carbonyl}amino)-5-fluorothiophen-2-yl]-2′-methoxy-[1,1′-biphenyl]-4-yl}cyclopropanecarboxylic acid] were ≤ 200 nM and ≥ 50%.
In the same order, the values of `C[C@@H](OC(=O)Nc1cc(Cl)sc1-c1ccc(-c2ccc(C3(C(=O)O)CC3)cc2)cc1)c1ccsc1` [I-596, (R)-1-{4′-[5-Chloro-3-({[1-(thiophen-3-yl)ethoxy]carbonyl}amino)thiophen-2-yl]-[1,1′-biphenyl]-4-yl}cyclopropanecarboxylic acid] are ≤ 200 nM and ≥ 50%.
`Cc1cscc1[C@@H](C)OC(=O)Nc1cc(Cl)sc1-c1ccc(-c2ccc(C3(C(=O)O)CC3)cc2)cc1` [I-606, (R)-1-{4′-[5-Chloro-3-({[1-(4-methylthiophen-3-yl)ethoxy]carbonyl}amino)thiophen-2-yl]-[1,1′-biphenyl]-4-yl}cyclopropanecarboxylic acid]: the IC50 in test [2] is ≤ 200 nM. Further, the responders at 10 mg/kg in test [3] is ≥ 50%.
`C[C@@H](OC(=O)Nc1cc(F)sc1-c1ccc(-c2ccc(C3(C(=O)O)CC3)cc2)cc1)c1ccsc1` [I-640, (R)-1-{4′-[5-Fluoro-3-({[1-(thiophen-3-yl)ethoxy]carbonyl}amino)thiophen-2-yl]-[1,1′-biphenyl]-4-yl}cyclopropanecarboxylic acid]: the IC50 in test [2] was ≤ 200 nM. The responders at 10 mg/kg in test [3] is ≥ 50%.
For the compound `Cc1cscc1[C@@H](C)OC(=O)Nc1cc(F)sc1-c1ccc(-c2ccc(C3(C(=O)O)CC3)cc2)cc1` [I-650, (R)-1-{4′-[5-Fluoro-3-({[1-(4-methylthiophen-3-yl)ethoxy]carbonyl}amino)thiophen-2-yl]-[1,1′-biphenyl]-4-yl}cyclopropanecarboxylic acid], the IC50 in test [2] was ≤ 200 nM. Further, the responders at 10 mg/kg in test [3] was ≥ 50%.
In the same order, the values of `COc1cc(-c2sc(Cl)cc2NC(=O)O[C@H](C)c2ccsc2)ccc1-c1ccc(C2(C(=O)O)CC2)cc1` [I-780, (R)-1-{4′-[5-Chloro-3-({[1-(thiophen-3-yl)ethoxy]carbonyl}amino)thiophen-2-yl]-2′-methoxy-[1,1′-biphenyl]-4-yl}cyclopropanecarboxylic acid] are ≤ 200 nM and ≥ 50%.

The record behind these values is patent publication US10597375B2, “Halogen-substituted heterocyclic compound” (UBE INDUSTRIES, LTD., priority 2012, dated 2020).
